# Source: patent publication US20220218778A1, “COMPOSITION FOR REDUCING BODY FAT COMPRISING GREEN TEA EXTRACT CONTAINING GALLOCATECHIN GALLATE AS AN ACTIVE INGREDIENT AND MANUFACTURING METHOD THEREOF” (AMOREPACIFIC CORPORATION, priority 2021, published 2022)
# What was measured:
# Type in all cases: cell-based, Mouse
# [1] = tested on: brown adipocyte-associated markers (Ucp1, Cidea, Cox8b, Dio2, Elovl3, Pgc1a, Prdm16); assay: Brown adipocyte-associated marker gene expression (qPCR) in adipocytes; conditions: FIG. 14; GCG 0.1, 1, 5, 10 or 20 μM; 24 hours
# Description: After extracting RNA using Trizol™ reagent (Thermo Fisher Scientific), cDNA was synthesized using a RevertAid™ 1st strand cDNA synthesis kit (Thermo Fisher Scientific). Then, the expression level of target genes was quantified by CFX96 real-time quantitative PCR (qPCR; Bio-Rad) using a housekeeping gene (cyclophilin).
# [2] = tested on: 3T3-L1 adipocytes; assay: Oxygen consumption rate (XF analyzer) in adipocytes; conditions: FIG. 18; 20 μM GCG, 24 hours; with oligomycin, FCCP, rotenone/antimycin A; normalized to protein
# Description: Mouse-derived 3T3-L1 adipocytes (American Type Culture Collection, ATCC) were cultured in an incubator using DMEM (Dulbecco's modified Eagle's medium; Sigma-Aldrich) containing 10% bovine calf serum (BCS; HyClone) and 1% penicillin/streptomycin (P/S; Sigma-Aldrich) under a standard condition (37° C., 5% CO2). For cellular differentiation, 48 hours after the cells were filled 100% on a plate, they were cultured again for 48 hours after replacing the medium with DMEM supplemented with 10% fetal bovine serum (FBS; Hyclone), 1% P/S, 0.5 mM 3-isobutyl-1-methylxanthine (IBMX; Sigma-Aldrich), 1 μM dexamethasone (Sigma-Aldrich) and 5 μg/mL insulin (Sigma-Aldrich). Then, differentiation of adipocytes was induced by culturing the cells additionally for 10 days while replacing the medium with a medium supplemented with 10% FBS, 5 μg/mL insulin and 1% P/S at two-day intervals.
# The adipocytes differentiated as in Reference Example 1 were treated with 20 μM gallocatechin gallate (GCG), which is contained in large quantities particularly in the heat-transformed green tea extract (HTGT) (Table 2), for 24 hours. A negative control group was treated with a vehicle (distilled water).
# Then, oxygen level and oxygen consumption rate (OCR) were measured using an XF analyzer (Agilent, Santa Clara, Calif., USA). […]
# [3] = tested on: 3T3-L1 adipocytes; assay: Triglyceride degradation in adipocytes (glycerol quantification); conditions: FIG. 9; HTGT 10, 50 or 100 μg/mL, IBMX 500 μM; 4 hours
Compound,expression of Elovl3 [1],expression of Prdm16 [1],expression of uncoupling protein 1 (Ucp1) [1],oxygen consumption rate (OCR) [2],degradation of triglycerides in adipocytes (glycerol produced) [3]
"O=C(O[C@@H]1Cc2c(O)cc(O)cc2O[C@H]1c1cc(O)c(O)c(O)c1)c1cc(O)c(O)c(O)c1 [GCG, gallocatechin gallate]",increased the expression of the fat degradation-associated Elovl3,not changed significantly,increased the expression,increased OCR,–
"CC(C)Cn1c(=O)n(C)c(=O)c2[nH]cnc21 [IBMX, 3-isobutyl-1-methylxanthine]",–,–,–,–,facilitating the degradation of triglycerides in adipocytes
